# Measurements published in paper PMC5706701, “Development of a homogenous high-throughput assay for inositol hexakisphosphate kinase 1 activity” (PLoS ONE, 2017).
# Structures can show the parent of a compound that is named as a salt. Where two headings read alike, the source gives them in different places.
# Biological target: T1, Human IP6K1 (Homo sapiens, UniProt Q92551)
# T1 construct: GST (N, cleaved yes); made in house; host or cells: C43 E. coli, pGEX-6P-2
# Assay: IP6K1 high-throughput screen of the Sigma LOPAC (ADP-Glo Max, single point);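 further: final compound concentration 10µM in 5% DMSO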
# Type: biochemical
# [1] = Sigma LOPAC single-point screen, ADP-Glo Max raw signal per well
# [2] = Sigma LOPAC single-point screen, Z-score from plate average and StDev
# [3] = LOPAC single-point screen, ADP-Glo Max luminescence raw signal per well
# [4] = LOPAC single-point screen, Z-score relative to plate average and StDev
# [5] = LOPAC single-point screen, Z-score from raw signal with plate average and StDev
# [6] = LOPAC single-point screen, ADP-Glo Max raw signal per well
# [7] = LOPAC single-point screen, Z-score against plate average and StDev
# [8] = LOPAC single-point screen, Z-score from plate average and StDev
# T1 sequence (Q92551 whole entry): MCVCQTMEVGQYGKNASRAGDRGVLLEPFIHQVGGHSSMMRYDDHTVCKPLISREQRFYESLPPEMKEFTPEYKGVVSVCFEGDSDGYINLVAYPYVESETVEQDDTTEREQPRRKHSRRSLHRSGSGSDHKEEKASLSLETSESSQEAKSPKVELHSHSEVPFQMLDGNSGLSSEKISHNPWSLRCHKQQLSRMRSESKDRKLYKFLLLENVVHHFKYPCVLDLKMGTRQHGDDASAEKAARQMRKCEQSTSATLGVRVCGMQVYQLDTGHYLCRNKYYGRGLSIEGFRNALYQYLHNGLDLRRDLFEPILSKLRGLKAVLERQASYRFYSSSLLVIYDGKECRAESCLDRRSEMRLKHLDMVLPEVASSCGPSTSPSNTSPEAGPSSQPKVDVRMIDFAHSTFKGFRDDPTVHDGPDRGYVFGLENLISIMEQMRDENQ
compound,measurement,setting,value
Cl.Cl.NCCNS(=O)(=O)c1cccc2cnccc12 [H-9 dihydrochloride],Raw Signal,[1],64375
same,Z-score,[2],1.138
O=S(=O)(NCCNC/C=C/c1ccc(Br)cc1)c1cccc2cnccc12 [H-89],Raw Signal,[3],53512
same,Z-score,[4],-0.7752
O=S(=O)(c1cccc2cnccc12)N1CCNCC1 [HA-100],Raw Signal,[1],57010
same,Z-score,[2],0.3743
Cl.NC(N)=NCCNS(=O)(=O)c1cccc2cnccc12 [HA-1004 hydrochloride],Raw Signal,[3],50838
same,Z-score,[4],-0.8792
CCCCC#Cc1nc(N)c2ncn([C@@H]3O[C@H](C(=O)NCC)[C@@H](O)[C@H]3O)c2n1 [HE-NECA],Raw Signal,[1],57534
same,Z-score,[2],0.4807
O=C(CCCN1CCC(O)(c2ccc(Cl)cc2)CC1)c1ccc(F)cc1 [Haloperidol],Raw Signal,[3],51923
same,Z-score,[4],-0.6588
Cc1nccc2c1[nH]c1ccccc12 [Harmane],Raw Signal,[3],51802
same,Z-score,[4],-0.6834
C[N+]1(C)CCOC(O)(c2ccc(-c3ccc(C4(O)C[N+](C)(C)CCO4)cc3)cc2)C1 (centres unmarked) [Hemicholinium-3],Z-score,[5],-0.115
C[N+](C)(C)CCCCCC[N+](C)(C)C [Hexamethonium bromide],Raw Signal,[6],55496
same,Z-score,[7],0.06681
C[N+](C)(C)CCCCCC[N+](C)(C)C.[Cl-].[Cl-] [Hexamethonium dichloride],Raw Signal,[1],57643
same,Z-score,[2],0.5028
O=c1cc(O)cc(/C=C/c2ccc(O)c(O)c2)o1 [Hispidin],Raw Signal,[3],48484
same,Z-score,[4],-1.357
NCCc1c[nH]cn1 [Histamine dihydrochloride],Raw Signal,[3],51759
same,Z-score,[4],-0.6921
NNc1nncc2ccccc12 [Hydralazine hydrochloride],Raw Signal,[6],53853
same,Z-score,[5],-0.2669
NS(=O)(=O)c1cc2c(cc1Cl)NCNS2(=O)=O [Hydrochlorothiazide],Raw Signal,[6],56632
same,Z-score,[7],0.2975
C[C@]12CCC(=O)C=C1CC[C@@H]1[C@@H]2[C@@H](O)C[C@@]2(C)[C@H]1CC[C@]2(O)C(=O)COC(=O)CCC(=O)[O-].[Na+] [Hydrocortisone 21-hemisuccinate sodium],Raw Signal,[1],57689
same,Z-score,[2],0.5122
C[C@]12CCC(=O)C=C1CC[C@@H]1[C@@H]2[C@@H](O)C[C@@]2(C)[C@H]1CC[C@]2(O)C(=O)CO [Hydrocortisone],Raw Signal,[6],54144
same,Z-score,[5],-0.2078
Oc1ccc(O)cc1 [Hydroquinone],Raw Signal,[1],59753
same,Z-score,[2],0.9314
Cl.NO [Hydroxylamine hydrochloride],Raw Signal,[3],61813
same,Z-score,[8],1.35
Nc1c2c(nc3ccccc13)CCCC2O.O=C(O)/C=C\C(=O)O (centres unmarked) [Hydroxytacrine maleate],Raw Signal,[6],53095
same,Z-score,[5],-0.4208
NC(=O)NO [Hydroxyurea],Raw Signal,[3],51854
same,Z-score,[4],-0.6728
NCCS(=O)O [Hypotaurine],Raw Signal,[6],53524
same,Z-score,[5],-0.3337
COc1cc(/C=C(\C#N)C(=O)c2ccc(O)c(O)c2)cc(I)c1O [I-OMe-Tyrphostin AG 538],Raw Signal,[6],53763
same,Z-score,[5],-0.4392
CNC(=O)[C@H]1O[C@@H](n2cnc3c(NCc4cccc(I)c4)ncnc32)[C@H](O)[C@@H]1O [IB-MECA],Raw Signal,[3],49701
same,Z-score,[4],-0.7885
COc1cc(OC)c(C=C2C(O)=Nc3ccccc32)c(OC)c1 [IC 261],Raw Signal,[6],54461
same,Z-score,[5],-0.3036
"Cc1ccc(OCC(O)C(C)NC(C)C)c2c1CCC2.Cl (centres unmarked) [ICI 118,551 hydrochloride]",Raw Signal,[1],57174
same,Z-score,[2],0.4672
"CN(C(=O)Cc1ccc(Cl)c(Cl)c1)C(CN1CCCC1)c1cccc(OCC(=O)O)c1.Cl (centres unmarked) [ICI 204,448 hydrochloride]",Raw Signal,[6],53600
same,Z-score,[5],-0.1333
Br.C[N+](C)(C)CCCCCNCC12CC3CC(CC(C3)C1)C2.[Br-] [IEM-1460],Raw Signal,[6],53178
same,Z-score,[5],-0.404
CCCC(=O)NCCc1c2n(c3ccc(OC)cc13)Cc1ccccc1-2 [IIK7],Raw Signal,[6],53632
same,Z-score,[5],-0.128
Cl.Fc1ccc(CN(C2=NCCN2)c2c(Cl)cccc2Cl)cc1 [IMID-4F hydrochloride],Raw Signal,[1],60859
same,Z-score,[2],1.156
CC(C)C(=O)c1c(C(C)C)nn2ccccc12 [Ibudilast],Raw Signal,[6],53701
same,Z-score,[5],-0.2977
O=C1NC(c2cccc([N+](=O)[O-])c2)=CCN1c1ccccc1O [Icilin],Raw Signal,[3],49844
same,Z-score,[4],-1.081
CC(=O)[C@]1(O)Cc2c(O)c3c(c(O)c2[C@@H](O[C@H]2C[C@H](N)[C@H](O)[C@H](C)O2)C1)C(=O)c1ccccc1C3=O [Idarubicin],Raw Signal,[6],55218
same,Z-score,[7],0.01035
c1ccc2c(c1)OCC(C1=NCCN1)O2 (centres unmarked) [Idazoxan hydrochloride],Raw Signal,[1],58161
same,Z-score,[2],0.633
CC(C(O)c1ccc(O)cc1)N1CCC(Cc2ccccc2)CC1.CC(C(O)c1ccc(O)cc1)N1CCC(Cc2ccccc2)CC1.O=C(O)C(O)C(O)C(=O)O (centres unmarked) [Ifenprodil tartrate],Raw Signal,[6],56294
same,Z-score,[7],0.3193
O=C1CCC(c2ccc(-n3ccnc3)cc2)=NN1 [Imazodan],Raw Signal,[1],60009
same,Z-score,[2],0.9834
N=C(N)SCCc1cnc[nH]1 [Imetit dihydrobromide],Raw Signal,,60718
same,Z-score,,1.063
Cl.O=C(O)Cc1c[nH]cn1 [Imidazole-4-acetic acid hydrochloride],Raw Signal,[6],55616
same,Z-score,[7],0.09118
CCn1ccnc1CC1COc2ccccc2O1 (centres unmarked) [Imiloxan hydrochloride],Raw Signal,[6],52626
same,Z-score,[5],-0.297
CN(C)CCCN1c2ccccc2CCc2ccccc21 [Imipramine hydrochloride],Raw Signal,[6],53704
same,Z-score,[5],-0.1159
CN[C@@H]1C[C@@H](c2ccc(Cl)c(Cl)c2)c2ccccc21 [Indatraline hydrochloride],Raw Signal,[6],53926
same,Z-score,[7],-0.07855
O=C1Nc2ccccc2/C1=C1/Nc2ccccc2/C1=N\O [Indirubin-3 -oxime],Raw Signal,[1],58050
same,Z-score,[2],0.5855
COc1ccc2c(c1)c(CC(=O)N1CCOCC1)c(C)n2C(=O)c1ccc(Cl)cc1 [Indomethacin morpholinylamide],Raw Signal,[6],52785
same,Z-score,[5],-0.2703
COc1ccc2c(c1)c(CC(=O)O)c(C)n2C(=O)c1ccc(Cl)cc1 [Indomethacin],Raw Signal,[6],54719
same,Z-score,[7],0.05469
NC(=O)CI [Iodoacetamide],Raw Signal,[3],64727
same,Z-score,[8],1.942
CC(C)NC(C)Cc1ccc(I)cc1 (centres unmarked) [Iofetamine hydrochloride],Raw Signal,[6],55439
same,Z-score,[7],0.1757
CC(C)[N+]1(C)[C@@H]2CC[C@H]1C[C@@H](OC(=O)C(CO)c1ccccc1)C2 (some centres unmarked) [Ipratropium bromide],Raw Signal,[1],56944
same,Z-score,[2],0.3609
CC(C)NNC(=O)c1ccncc1.O=P(O)(O)O [Iproniazid phosphate],Raw Signal,[1],60567
same,Z-score,[2],1.037
O=C(O)C1=CCNCC1 [Isoguvacine hydrochloride],Raw Signal,[6],53600
same,Z-score,[5],-0.3182
O=C(/C=C/c1ccc(O)cc1)c1ccc(O)cc1O [Isoliquiritigenin],Raw Signal,[6],53778
same,Z-score,[5],-0.1034
O=C(O)C1CCNCC1 [Isonipecotic acid],Raw Signal,[6],51826
same,Z-score,[5],-0.4314
CCC(NC(C)C)C(O)c1ccc(O)c(O)c1.CS(=O)(=O)O (centres unmarked) [Isotharine mesylate],Raw Signal,[6],54100
same,Z-score,[7],-0.04932
Nc1nc2[nH]c(=O)cnc2c(=O)[nH]1 [Isoxanthopterin],Raw Signal,[1],59100
same,Z-score,[2],0.7908
CC[C@H](C)[C@H]1O[C@]2(CC[C@@H]1C)C[C@@H]1C[C@@H](C/C=C(\C)[C@@H](O[C@H]3C[C@H](OC)[C@@H](O[C@H]4C[C@H](OC)[C@@H](O)[C@H](C)O4)[C@H](C)O3)[C@@H](C)/C=C/C=C3\CO[C@@H]4[C@H](O)C(C)=C[C@@H](C(=O)O1)[C@]34O)O2 [Ivermectin],Raw Signal,[6],51728
same,Z-score,[5],-0.4479
CCCn1c(C)c(C(=O)c2cccc3ccccc23)c2ccccc21 [JWH-015],Raw Signal,[6],54462
same,Z-score,[7],0.01151
C=C(C)[C@H]1CN[C@H](C(=O)O)[C@H]1CC(=O)O [Kainic acid],Raw Signal,,54485
same,Z-score,,0.01537
CCN1C[C@]2(C)CC[C@H](O)[C@]34C1[C@@H](C[C@H]23)[C@@]1(O)C[C@H](OC)[C@H]2C[C@@H]4[C@@H]1[C@H]2O [Karakoline],Raw Signal,[6],53043
same,Z-score,[5],-0.2269
O=C1Cc2c([nH]c3ccc(Br)cc23)-c2ccccc2N1 [Kenpaullone],Raw Signal,[3],65095
same,Z-score,[8],1.798
O=C(c1ccc(F)cc1)C1CCN(CCn2c(=O)[nH]c3ccccc3c2=O)CC1 [Ketanserin tartrate],Raw Signal,[1],61310
same,Z-score,[2],1.027
CC(=O)N1CCN(c2ccc(OCC3COC(Cn4ccnc4)(c4ccc(Cl)cc4Cl)O3)cc2)CC1 (centres unmarked) [Ketoconazole],Raw Signal,[3],49591
same,Z-score,[4],-0.8069
CC(C(=O)O)c1cccc(C(=O)c2ccccc2)c1 (centres unmarked) [Ketoprofen],Raw Signal,[6],53403
same,Z-score,[5],-0.1664
NC(CO)(CO)CO.O=C(c1ccccc1)c1ccc2n1CCC2C(=O)O (centres unmarked) [Ketorolac tris salt],Raw Signal,[3],48098
same,Z-score,[4],-1.058
CN1CCC(=C2c3ccccc3CC(=O)c3sccc32)CC1 [Ketotifen fumarate],Raw Signal,[3],50782
same,Z-score,[4],-0.6068
O=C(O)c1cc(=O)c2ccccc2[nH]1 [Kynurenic acid],Raw Signal,[6],53243
same,Z-score,[5],-0.1933
